In patent US6545043B1 (priority 1997, dated 2003):
Converted amounts (≈) assume the structure as drawn. “And” between values parts separate entries of the source, which are not always exact repeats. Identical values can stand only once. “Also recorded” adds a separate entry of the source. Like-named read-outs stand apart in the source and are kept apart here.

Key:
[1] = tested on: adult house fly (Musca domestica); conditions: in vivo
[2] = tested on: lesser grain borer (Rhizopertha dominica); conditions: in vivo
[3] = tested on: brine shrimp (Artemia franciscana); conditions: in vivo
[4] = tested on: adult house fly (Musca domestica); assay: whole plant or invertebrate; conditions: topical, 24 h, read-out: Percentage mortality at 24 h
[5] = tested on: yellow fever mosquito (Aedes aegypti) larvae; assay: whole plant or invertebrate; conditions: 24 h, read-out: % mortality at 1 ppm
[6] = tested on: brine shrimp (Artemia franciscana); assay: whole plant or invertebrate
[7] = in vivo; cited from earlier work
[8] = tested on: soybean cyst nematode (SCN) (Heterodera glycines) eggs; conditions: in vivo
[9] = tested on: adult house fly (Musca domestica); conditions: in vivo; remark: listed apart in the source
[10] = tested on: root-knot nematode (RKN) (Meloidogyne incognita) eggs; conditions: in vivo
[11] = tested on: root-knot nematode (RKN) (Meloidogyne incognita) eggs; conditions: in vivo; remark: listed apart in the source
[12] = tested on: soil bacteria
[13] = tested on: weed seeds in soil; conditions: in vivo
[14] = tested on: Drugstore beetle, Stegobium paniceum; conditions: in vivo; cited from earlier work
[15] = tested on: Bean weevil, Acanthoscelides obtectus; conditions: in vivo; cited from earlier work
[16] = tested on: Granary weevil, Sitophilus granarius; conditions: in vivo; cited from earlier work
[17] = tested on: Saw-toothed grain weevil, Oryzaephilus surinamensis; conditions: in vivo; cited from earlier work
[18] = tested on: Confused flour beetle, Tribolium confusum; conditions: in vivo; cited from earlier work
[19] = tested on: soil microbial activity
[20] = tested on: five stored products pests (granary weevil, drugstore beetle, confused flour beetle, bean weevil, saw-toothed grain beetle); conditions: in vivo; cited from earlier work
[21] = tested on: house fly larvae (M. domestica); conditions: in vivo; cited from earlier work
[22] = 24 h, read-out: % Mortality at 1 ppm

Molecule: N#CC1(O)C=CCCC1 (centres unmarked) [2-cyclohexen-1-one cyanohydrin]
- LC50 [1]: >20 µg/mL
- LC50 [2]: >20 µg/mL

Molecule: CC=C(C)C(O)C#N (centres unmarked) [2-methyl-2-butenal cyanohydrin]
- LC50 [1]: >20 µg/mL
- LC50 [2]: >20 µg/mL

Molecule: CCC(C)C(O)C#N (centres unmarked) [2-methylbutyraldehyde cyanohydrin]
- LC50 [1]: >20 µg/mL
- LC50 [2]: >20 µg/mL

Molecule: CCCC(C)C(O)C#N (centres unmarked) [2-methylvaleraldehyde cyanohydrin]
- LC50 [1]: >20 µg/mL
- LC50 [2]: >20 µg/mL

Molecule: N#CC(O)c1ccccc1[N+](=O)[O-] (centres unmarked) [2-nitromandelonitrile cyanohydrin]
- LC50 [1]: >20 µg/mL
- LC50 [2]: >20 µg/mL

Molecule: CC(C)C(C)(O)C#N (centres unmarked) [3-methylbutanone cyanohydrin]
- LC50 [1]: >20 µg/mL
- LC50 [2]: >20 µg/mL

Molecule: C=CCC#N [AC, allyl cyanide]
- LC50 [1]: 3.66 µg/mL (≈ 54.6 µM)
- effectiveness as aquatic pesticide [3]: very weak
- LC50 [2]: 2.8 µg/mL (≈ 41.7 µM)
- mortality at 97 µg/fly [4]: 15%
- mortality at 1 ppm [5]: 3%
- mortality at 1 ppm [6, 22]: 7%

Molecule: C=CCN=C=S [AITC, allyl isothiocyanate]
- LC50 [1]: 0.13 µg/mL (≈ 1.31 µM)
- LC50 [2]: 1.57 µg/mL (≈ 15.8 µM)
- mortality at 99 µg/fly [4]: 45%
- mortality at 1 ppm [5]: 83%
- mortality at 1 ppm [6, 22]: 97%

Molecule: C=CCSC#N [ATC, allyl thiocyanate]
- effectiveness as aquatic pesticide [3]: very weak
- mortality at 101 µg/fly [4]: 35%
- mortality at 1 ppm [5]: 57%
- mortality at 1 ppm [6, 22]: 47%

Molecule: CNC(=O)O/N=C/C(C)(C)SC [Aldicarb]
- mammalian LD50 [7]: 1 mg/kg

Molecule: C=CC(O)CC#N (centres unmarked) [CHB, 1-cyano-2-hydroxy-3-butene]
- LC50 [1]: 6.2 µg/mL (≈ 63.8 µM)
- effectiveness as aquatic pesticide [3]: very weak
- […] HATCH [8]: −70% and −73%
- times less effective than dichlorvos [2]: about 68 times
- mortality at 10.7 µg/fly [4]: 0%
- mortality at 107 µg/fly [4]: 55%
- mortality at 1 ppm [5]: 17%
- mortality at 1 ppm [6, 22]: 13%

Molecule: C=CC(C#N)OC(=O)/C=C/c1ccccc1 (centres unmarked) [CHP cinnamate]
- effectiveness as aquatic pesticide [3]: moderately toxic
- mortality at 1 µg/fly [4]: 0%
- mortality at 10 µg/fly [4]: ~50%
- mortality at 100 µg/fly [4]: 87%
- mortality at 1 ppm [6]: 95%
- mortality at 10 ppm [6]: 100%
- mortality at 100 ppm [6]: 100%

Molecule: C=CC(C#N)OC(=O)CCCCCCCCC (centres unmarked) [CHP decanoate]
- mortality at 1 µg/fly [4]: 0%
- mortality at 10 µg/fly [4]: ~50%
- mortality at 100 µg/fly [4]: 100%
- mortality at 1 ppm [6]: 15%
- mortality at 10 ppm [6]: 95%
- mortality at 100 ppm [6]: 100%

Molecule: C=CC(O)C#N (centres unmarked) [CHP, 3-cyano-3-hydroxy-1-propene]
- LC50 [1]: 0.15 µg/mL (≈ 1.81 µM)
- effectiveness as topical pesticide [9]: relatively weak
- LC50 [2]: 0.37 µg/mL (≈ 4.45 µM)
- percent hatch, highest in the 22-day period [10]: ≤ 19%
- mortality at 9.8 µg/fly [4]: 5%
- mortality at 98 µg/fly [4]: 100%
- percent hatch, highest in the 22-day observation period [11]: ≤ 34.4%

Molecule: C=CC(C#N)OC(C)=O (centres unmarked) [CHP-Ace, CHP acetate]
- LC50 [1]: 0.26 µg/mL
- times less effective than dichlorvos [1]: about 20 times
- Severity (bacteria and fungal colonies formed) [12]: completely inhibited growth; also recorded: No bacteria or fungal colonies
- LC50 [2]: 0.37 µg/mL
- percent hatch, highest in the 22-day period [10]: ≤ 42.6%
- mortality at 10 µg/fly [4]: 0%
- mortality at […] [4]: 100%
- Percent hatch [11]: 0.0% and 5.4% and 5.6% and 0.8% and 1.5% and 4.9% and 5.2% and 5.3%
- percent hatch, highest in the 22-day observation period [11]: ≤ 5.6%
- effect on post-emergent weeds (observation) [13]: kill post-emergent weeds

Molecule: C=CC(C#N)OC(=O)C(C)(C)C (centres unmarked) [CHP-Piv, CHP pivalate]
- LC50 [1]: 1.37 µg/mL (≈ 8.19 µM)
- LC50 [2]: 2.4 µg/mL (≈ 14.4 µM)
- mortality at 9.9 µg/fly [4]: 0%
- mortality at 99 µg/fly [4]: 80%

Molecule: C=CC(C#N)OC(=O)CC (centres unmarked) [CHP-Pro, CHP propionate]
- LC50 [1]: 0.66 µg/mL (≈ 4.74 µM)
- times less effective than dichlorvos [1]: about 60 times
- LC50 [2]: 0.70 µg/mL (≈ 5.03 µM)
- times less effective than dichlorvos [2]: about 2.5 times
- mortality at 9.7 µg/fly [4]: 0%
- mortality at 97 µg/fly [4]: 100%

Molecule: CC(C)(O)C#N [DMK-CNOH, dimethyl ketone cyanohydrin]
- LC50 [1]: <0.07 µg/mL
- LC50 [2]: 0.25 µg/mL (≈ 2.94 µM)

Molecule: C=CC1CNC(=S)O1 (centres unmarked) [Goitrin, goitrin]
- mortality at 1 µg/fly [4]: 5%
- mortality at 100 µg/fly [4]: 5%

Molecule: C=CC#N [acrylonitrile]
- LC50 for 6 h [14]: 1.7 µg/mL
- LC50 for 6 h [15]: 1.1 µg/mL
- LC50 for 6 h [16]: 2.0 µg/mL
- LC50 for 6 h [17]: 0.8 µg/mL
- LC50 for 6 h [18]: 3.0 µg/mL

Molecule: S=C=S [carbon disulfide]
- LC50 for 6 h [14]: 42.0 µg/mL
- LC50 for 6 h [15]: 29.0 µg/mL
- LC50 for 6 h [16]: 43.0 µg/mL
- LC50 for 6 h [17]: 40.0 µg/mL
- LC50 for 6 h [18]: 75.0 µg/mL

Molecule: O=C(O)C=Cc1ccccc1 [cinnamic acid, reference compound]
- effectiveness as topical pesticide [9]: not an effective biopesticide
- mortality at 1 µg/fly [4]: 0%
- mortality at 10 µg/fly [4]: 0%
- mortality at 100 µg/fly [4]: 0%
- mortality at 1 ppm [6]: 30%
- mortality at 10 ppm [6]: 45%
- mortality at 100 ppm [6]: 100%

Molecule: N#CC(O)/C=C/c1ccccc1 (centres unmarked) [cinnamyl cyanohydrin]
- effectiveness as topical pesticide [9]: relatively weak
- mortality at 6 µg/fly [4]: 9%
- mortality at 50 µg/fly [4]: 100%
- mortality at 1 ppm [6]: 25%
- mortality at 10 ppm [6]: 15%
- mortality at 100 ppm [6]: 100%

Molecule: CC(C)=CCCC(C)CC(=O)O (centres unmarked) [citronellic acid, reference compound]
- mortality at 1 µg/fly [4]: 0%
- mortality at 10 µg/fly [4]: 91%
- mortality at 100 µg/fly [4]: 100%
- mortality at 1 ppm [6]: 40%
- mortality at 10 ppm [6]: 65%
- mortality at 100 ppm [6]: 100%

Molecule: CC(C)=CCCC(C)CC(O)C#N (centres unmarked) [citronellyl cyanohydrin]
- effectiveness as topical pesticide [9]: not active
- mortality at 6 µg/fly [4]: 14%
- mortality at 50 µg/fly [4]: 10%

Molecule: CC(C)=CCC/C(C)=C/C(O)C#N (centres unmarked) [citryl cyanohydrin]
- Percentage mortality at 24 h [9]: 9%
- effectiveness as topical pesticide [9]: not active
- mortality at 1 µg/fly [4]: 8%
- mortality at 1 ppm [6]: 0%
- mortality at 10 ppm [6]: 0%
- mortality at 100 ppm [6]: 87%

Molecule: COP(=O)(OC)OC=C(Cl)Cl [dichlorvos, reference compound]
- LC50 [2]: 0.29 µg/mL (≈ 1.31 µM)
- mortality at 1 µg/fly [4]: 95%

Molecule: C1CO1 [ethylene oxide]
- LC50 for 6 h [14]: 9.0 µg/mL
- LC50 for 6 h [15]: 10.5 µg/mL
- LC50 for 6 h [16]: 13.5 µg/mL
- LC50 for 6 h [17]: 4.0 µg/mL
- LC50 for 6 h [18]: 27.5 µg/mL

Molecule: N#CC(O)c1ccccc1 (centres unmarked) [mandelonitrile]
- percent hatch, highest in the 22-day period [10]: ≤ 29.7%

Molecule: CBr [methyl bromide]
- LC50 for 6 h [14]: 4.4 µg/mL
- Severity of depression of microbial activity [19]: Slightly Depressed; also recorded: severe depression; also recorded: Severely Depressed
- LC50 values, range over five stored products pests [20]: 4.2 to 9.2 µg/mL
- LC50 for 6 h [15]: 4.2 µg/mL
- LC50 for 6 h [16]: 4.8 µg/mL
- LC50 for 6 h [17]: 4.4 µg/mL
- LC50 for 6 h [18]: 9.2 µg/mL

Molecule: CC1(C)C(C=C(Cl)Cl)C1C(=O)OCc1cccc(Oc2ccccc2)c1 (centres unmarked) [permethrin]
- mortality [21]: roughly 98%

Molecule: C=C(C)[C@H]1Cc2c(ccc3c2O[C@@H]2COc4cc(OC)c(OC)cc4[C@@H]2C3=O)O1 [rotenone, reference compound]
- mortality at 1 ppm [6]: 100%

Molecule: methyl ethyl ketone cyanohydrin [MEK-CNOH]
- LC50 [1]: 0.09 µg/mL
- LC50 [2]: 0.27 µg/mL
